# Legend:
# PubChem AID 623927 = settings: Ricerca radioligand binding panel, 10 uM, % inhibition, stronger effect = higher value
# [1] = target: 5-hydroxytryptamine receptor 1A (Homo sapiens) (UniProt P08908); test: PubChem AID 623927; settings: Ricerca radioligand binding panel, 10 uM, % inhibition; serotonin 5-HT1A binding; stronger effect = higher value
# [2] = target: Adenosine receptor A1 (Homo sapiens) (UniProt P30542); test: PubChem AID 623927; settings: Ricerca radioligand binding panel, 10 uM, % inhibition; adenosine A1 binding; stronger effect = higher value
# [3] = target: Alpha-1A adrenergic receptor (Homo sapiens) (UniProt P35348); test: PubChem AID 623927; settings: Ricerca radioligand binding panel, 10 uM, % inhibition; adrenergic alpha1A binding; stronger effect = higher value
# [4] = target: Sigma non-opioid intracellular receptor 1 (Homo sapiens) (UniProt Q99720); test: PubChem AID 623927; settings: Ricerca radioligand binding panel, 10 uM, % inhibition; sigma 1 receptor binding; stronger effect = higher value
# [5] = target: Sodium-dependent dopamine transporter (Homo sapiens) (UniProt Q01959); test: PubChem AID 623927; settings: Ricerca radioligand binding panel, 10 uM, % inhibition; dopamine transporter DAT binding; stronger effect = higher value
# [6] = target: Sodium-dependent serotonin transporter (Homo sapiens) (UniProt P31645); test: PubChem AID 623927; settings: Ricerca radioligand binding panel, 10 uM, % inhibition; serotonin transporter SERT binding; stronger effect = higher value
# [7] = target: Voltage-gated inwardly rectifying potassium channel KCNH2 (Homo sapiens) (UniProt Q12809); test: PubChem AID 623927; settings: Ricerca radioligand binding panel, 10 uM, % inhibition; hERG channel binding; stronger effect = higher value
# [8] = test system: norepinephrine transporter (NET) [Homo sapiens]; test: PubChem AID 623927; settings: Ricerca radioligand binding panel, 10 uM, % inhibition; stronger effect = higher value
smiles,measurement,setting,value
O=C(Nc1cccc(Cl)c1)c1ccccn1,inhibition,PubChem AID 623927; NMDA agonist site binding,15%
same,inhibition,PubChem AID 623927; NMDA phencyclidine site binding,15%
same,inhibition,PubChem AID 623927; phorbol ester binding,21%
same,inhibition,PubChem AID 623927; rolipram site (PDE4) binding,17%
same,inhibition,PubChem AID 623927; sigma 2 receptor binding,15%
same,inhibition,[1],16%
same,inhibition,[2],17%
same,inhibition,[3],16%
same,inhibition,[4],27%
same,inhibition,[5],31%
same,inhibition,[6],12%
same,inhibition,[7],0%
same,inhibition of NET radioligand binding,[8],80%
